Values after ≈ are worked out from the molar mass of the structure shown.
Tests used:
Streptococcus pneumoniae [1] = assay: Antibacterial activity against Streptococcus pneumoniae assessed as reduction in bacterial growth incubated for 16 to 20 hrs by broth microdilution method; assay type: functional; settings: time 16-20 hrs
Bacteria = assay: Inhibition of bacterial RNA polymerase holoenzyme formation assessed as inhibition of interaction between beta subunit CH domain and sigma factor at 500 uM relative to control
[2] = Inhibition of Bacillus subtilis N-terminal SmBiT NanoLuc/C-terminal LgBiT NanoLuc fused full-length SigA tagged RNA polymerase beta subunit CH-domain (220 to 315 residues)/sigma factor (unknown origin) protein-protein interaction by split luciferase assay
Staphylococcus aureus [3] = assay: Antibacterial activity against vancomycin-resistant Staphylococcus aureus; assay type: functional
Staphylococcus aureus [4] = assay: Antibacterial activity against methicillin-resistant Staphylococcus aureus; assay type: functional
Staphylococcus aureus [5] = assay: Antibacterial activity against Staphylococcus aureus; assay type: functional
[6] = Inhibition of Escherichia coli RNA polymerase/sigma factor 70 (unknown origin) protein-protein interaction incubated for 30 mins by ELISA
[7] = Inhibition of NusB-NusE (unknown origin) protein protein interaction; set-up: species or system Bacteria
[8] = Binding affinity to NusB (unknown origin) assessed as dissociation constant; set-up: species or system Bacteria
[9] = Inhibition of ribo(C)10 stimulated Escherichia coli AR120 Rho ATPase activity preincubated for 2 mins in presence of ribo(C)10 followed by ATP addition and measured for 90 sec by [gamma-32P]ATP based liquid scintillation counting method
[10] = Inhibition of ribo(C)10 stimulated Escherichia coli AR120 Rho ATPase activity preincubated for 2 mins in absence of ribo(C)10 followed by ATP addition and measured for 90 sec by [gamma-32P]ATP based liquid scintillation counting method
Bacteroides sp. = assay: Antibacterial activity against Bacteroides sp. measured after 24 hrs by broth microdilution method; assay type: functional
Streptococcus pneumoniae [11] = assay: Antibacterial activity against Streptococcus pneumoniae CIP103566 measured after 24 hrs by broth microdilution method; assay type: functional
Bacillus anthracis = assay: Antibacterial activity against Bacillus anthracis 9131 measured after 24 hrs by broth microdilution method; assay type: functional
Moraxella catarrhalis = assay: Antibacterial activity against Moraxella catarrhalis; assay type: functional
[12] = Inhibition of poly(C) dependent Escherichia coli DW319 Rho ATPase activity
Neisseria gonorrhoeae = assay: Antibacterial activity against Neisseria gonorrhoeae; assay type: functional
Bacillus subtilis [13] = assay: Antibacterial activity against Bacillus subtilis EU168 measured after 18 hrs; assay type: functional
Staphylococcus aureus [14] = assay: Antibacterial activity against community-acquired methicillin-resistant Staphylococcus aureus USA300 measured after 18 hrs; assay type: functional
Escherichia coli = assay: Antibacterial activity against Escherichia coli assessed as inhibition of bacterial growth at 200 uM incubated for 10 sec under shaking condition relative to control; assay type: functional; settings: 10 s
Bacillus subtilis [15] = assay: Antibacterial activity against Bacillus subtilis assessed as inhibition of bacterial growth at 200 uM incubated for 10 sec under shaking condition relative to control; assay type: functional; settings: 10 s

Nc1ccccc1Sc1ccc(C(=O)c2ccccc2C(=O)O)cc1[N+](=O)[O-]
MIC (Streptococcus pneumoniae [1]): 256 µg/mL (≈ 649 µM)
inhibition (Bacteria): 80%
IC50 [2]: 6.4 µM

C#Cc1cccc(NCc2cc([N+](=O)[O-])cc(Br)c2O)c1
MIC (Staphylococcus aureus [3]): 0.25 µg/mL (≈ 0.72 µM)
MIC (Staphylococcus aureus [4]): 0.25 µg/mL (≈ 0.72 µM)

O=[N+]([O-])c1ccc(O)c(/C=N/c2cccc(Cl)c2)c1
MIC (Staphylococcus aureus [3]): 0.25 µg/mL (≈ 0.904 µM)
MIC (Staphylococcus aureus [5]): 2 µg/mL (≈ 7.23 µM)
MIC (Staphylococcus aureus [4]): 0.25 µg/mL (≈ 0.904 µM)

CN1C(=O)/C(=C\c2ccc(-c3cccc(C(=O)O)c3)o2)SC1=S
IC50 [6]: 3 µM

O=[N+]([O-])c1ccc(O)c(CNc2ccccc2C#Cc2ccccc2)c1
MIC (Staphylococcus aureus [3]): 0.25 µg/mL (≈ 0.726 µM)
MIC (Staphylococcus aureus [5]): 0.25 µg/mL (≈ 0.726 µM)
MIC (Staphylococcus aureus [4]): 0.25 µg/mL (≈ 0.726 µM)

C=CCN1C(=O)/C(=C/c2cc(C)n(-c3cccc(C(=O)O)c3)c2C)SC1=S
IC50 [6]: 1.8 µM

O=C(O)c1ccccc1C(=O)c1ccc(Sc2ccc(Cl)c(Cl)c2)c([N+](=O)[O-])c1
MIC (Streptococcus pneumoniae [1]): 8 µg/mL (≈ 17.8 µM)

CCNC(=O)Nc1ccc(OCCCCOc2ccc(NC(=O)NCC)cc2)cc1
IC50 [7]: 19.8 µM

COc1ccc(-c2cc(-c3ccc(OC)c(OC)c3)nc(NS(=O)(=O)c3ccc(NC(C)=O)cc3)n2)c(OC)c1
IC50 [7]: 6.1 µM

C#Cc1cccc(/N=C/c2cc([N+](=O)[O-])ccc2O)c1
IC50 [7]: ~35 µM
MIC (Staphylococcus aureus [5]): 8 µg/mL (≈ 30 µM)
Kd [8]: ~1.5 µM

C=C1CCO[C@]2([C@@H](O)[C@@](C)(O)CO)NC(=O)[C@@]1(O)NC2=O [BICOZAMYCIN]
Ki [9]: 2.8 µM
Ki [10]: 26 µM

COc1cccc(/C=C/c2cc(O)ccc2[N+](=O)[O-])c1
MIC (Staphylococcus aureus [3]): 0.25 µg/mL (≈ 0.922 µM)
MIC (Staphylococcus aureus [5]): 2 µg/mL (≈ 7.37 µM)
MIC (Staphylococcus aureus [4]): 0.25 µg/mL (≈ 0.922 µM)

CC(C)(C)c1ccccc1NCc1cc([N+](=O)[O-])ccc1O
MIC (Staphylococcus aureus [3]): 0.25 µg/mL (≈ 0.832 µM)
MIC (Staphylococcus aureus [5]): 1 µg/mL (≈ 3.33 µM)
MIC (Staphylococcus aureus [4]): 0.25 µg/mL (≈ 0.832 µM)

C=CCN1C(=O)/C(=C\c2ccc(-c3cccc(C(=O)O)c3)o2)SC1=S
MIC (Bacteroides sp.): 1 µg/mL (≈ 2.69 µM)
MIC (Streptococcus pneumoniae [11]): 2 µg/mL (≈ 5.38 µM)
MIC (Bacillus anthracis): 0.1 µg/mL (≈ 0.269 µM)
IC50 [6]: 2 µM

O=C1N(Cc2ccccc2)CCC1(CCN1CCC(Nc2nc3ccccc3n2Cc2ccc(F)cc2)CC1)Cc1ccccc1 (centres undefined)
MIC (Moraxella catarrhalis): 2.5 µM (≈ 1.54 µg/mL)
IC50 [12]: 25 µM
MIC (Neisseria gonorrhoeae): 2.5 µM (≈ 1.54 µg/mL)

C[C@]12CC[C@@H](O)CC1CCC1C2CC[C@](C)(C(=O)O)C1/C=C1/Nc2ccccc2C1=O (some centres undefined)
inhibition (Bacteria): 80%
MIC (Bacillus subtilis [13]): ≤ 50 µM
MIC (Staphylococcus aureus [14]): ~100 µM (≈ 42.4 µg/mL)

N=C(N)N/N=C/c1ccc(OC/C=C\COc2ccc(/C=N/NC(=N)N)cc2)cc1
inhibition at 200 µM (Escherichia coli): 100%
inhibition at 200 µM (Bacillus subtilis [15]): 100%
